Data from ChEMBL document CHEMBL5465560, “Selectivity Literature for EUbOPEN Chemogenomic Library” (2024).

Assays:
[1] = target: Myosin light chain kinase, smooth muscle (Homo sapiens, UniProt Q15746); test: Selectivity interaction (Kinase panel (literature)) EUB0001199aCl MYLK; settings: at 1 µM
[2] = target: T1, Serine/threonine-protein kinase PLK4 (Homo sapiens) (UniProt O00444); test: Selectivity interaction (KinomeScan (DiscoverX)) EUB0000666a PLK4; settings: at 10 µM
T1 sequence (whole entry): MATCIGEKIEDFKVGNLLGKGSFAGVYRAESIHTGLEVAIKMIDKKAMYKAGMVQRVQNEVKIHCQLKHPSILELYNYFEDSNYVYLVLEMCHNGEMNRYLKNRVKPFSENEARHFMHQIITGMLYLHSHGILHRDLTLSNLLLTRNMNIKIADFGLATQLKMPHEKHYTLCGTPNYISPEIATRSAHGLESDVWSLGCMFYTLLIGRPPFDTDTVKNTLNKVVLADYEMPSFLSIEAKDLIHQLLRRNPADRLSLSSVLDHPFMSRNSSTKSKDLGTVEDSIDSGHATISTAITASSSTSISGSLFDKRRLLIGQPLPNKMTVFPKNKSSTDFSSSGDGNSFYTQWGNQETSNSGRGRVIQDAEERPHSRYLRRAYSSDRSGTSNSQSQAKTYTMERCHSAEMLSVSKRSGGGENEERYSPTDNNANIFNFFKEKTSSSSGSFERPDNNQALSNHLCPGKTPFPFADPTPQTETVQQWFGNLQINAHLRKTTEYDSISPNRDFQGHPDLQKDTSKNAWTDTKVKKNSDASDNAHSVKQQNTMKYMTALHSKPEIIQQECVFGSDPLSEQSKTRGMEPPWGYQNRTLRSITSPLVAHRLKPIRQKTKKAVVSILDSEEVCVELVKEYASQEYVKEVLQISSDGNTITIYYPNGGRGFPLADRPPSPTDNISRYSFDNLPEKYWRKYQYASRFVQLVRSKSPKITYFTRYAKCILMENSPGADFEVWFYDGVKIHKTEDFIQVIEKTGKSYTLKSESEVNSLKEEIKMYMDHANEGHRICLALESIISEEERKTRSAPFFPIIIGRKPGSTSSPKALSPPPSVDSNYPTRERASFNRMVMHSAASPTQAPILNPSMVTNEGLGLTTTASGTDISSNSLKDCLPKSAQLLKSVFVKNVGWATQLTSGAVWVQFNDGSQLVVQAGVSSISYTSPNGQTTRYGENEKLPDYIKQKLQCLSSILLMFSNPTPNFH

[3] = target: Tyrosine-protein kinase Fyn (Homo sapiens) (UniProt P06241); test: Selectivity interaction (KinomeScan (DiscoverX)) EUB0000666a FYN; settings: at 10 µM
Sequence of Tyrosine-protein kinase Fyn (Homo sapiens) (P06241 2-537 limits assumed): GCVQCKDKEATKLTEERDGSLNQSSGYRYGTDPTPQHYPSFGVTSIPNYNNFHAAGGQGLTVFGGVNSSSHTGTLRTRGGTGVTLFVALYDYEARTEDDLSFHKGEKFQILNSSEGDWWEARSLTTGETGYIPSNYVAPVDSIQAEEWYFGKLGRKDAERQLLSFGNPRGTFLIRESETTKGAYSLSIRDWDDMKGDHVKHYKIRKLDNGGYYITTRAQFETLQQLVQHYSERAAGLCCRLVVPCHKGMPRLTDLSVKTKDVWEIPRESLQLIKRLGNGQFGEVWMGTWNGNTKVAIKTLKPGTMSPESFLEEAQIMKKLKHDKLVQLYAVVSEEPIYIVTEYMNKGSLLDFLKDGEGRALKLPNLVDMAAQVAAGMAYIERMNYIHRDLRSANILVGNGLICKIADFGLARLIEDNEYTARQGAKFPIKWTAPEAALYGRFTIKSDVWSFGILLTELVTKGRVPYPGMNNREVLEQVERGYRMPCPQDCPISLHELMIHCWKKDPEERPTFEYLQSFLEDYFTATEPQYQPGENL

[4] = target: Mitogen-activated protein kinase kinase kinase kinase 1 (Homo sapiens) (UniProt Q92918); test: Selectivity interaction (KinomeScan (DiscoverX)) EUB0001079a MAP4K1; settings: at 1 µM
Sequence of Mitogen-activated protein kinase kinase kinase kinase 1 (Homo sapiens) (Q92918 whole entry, looked up): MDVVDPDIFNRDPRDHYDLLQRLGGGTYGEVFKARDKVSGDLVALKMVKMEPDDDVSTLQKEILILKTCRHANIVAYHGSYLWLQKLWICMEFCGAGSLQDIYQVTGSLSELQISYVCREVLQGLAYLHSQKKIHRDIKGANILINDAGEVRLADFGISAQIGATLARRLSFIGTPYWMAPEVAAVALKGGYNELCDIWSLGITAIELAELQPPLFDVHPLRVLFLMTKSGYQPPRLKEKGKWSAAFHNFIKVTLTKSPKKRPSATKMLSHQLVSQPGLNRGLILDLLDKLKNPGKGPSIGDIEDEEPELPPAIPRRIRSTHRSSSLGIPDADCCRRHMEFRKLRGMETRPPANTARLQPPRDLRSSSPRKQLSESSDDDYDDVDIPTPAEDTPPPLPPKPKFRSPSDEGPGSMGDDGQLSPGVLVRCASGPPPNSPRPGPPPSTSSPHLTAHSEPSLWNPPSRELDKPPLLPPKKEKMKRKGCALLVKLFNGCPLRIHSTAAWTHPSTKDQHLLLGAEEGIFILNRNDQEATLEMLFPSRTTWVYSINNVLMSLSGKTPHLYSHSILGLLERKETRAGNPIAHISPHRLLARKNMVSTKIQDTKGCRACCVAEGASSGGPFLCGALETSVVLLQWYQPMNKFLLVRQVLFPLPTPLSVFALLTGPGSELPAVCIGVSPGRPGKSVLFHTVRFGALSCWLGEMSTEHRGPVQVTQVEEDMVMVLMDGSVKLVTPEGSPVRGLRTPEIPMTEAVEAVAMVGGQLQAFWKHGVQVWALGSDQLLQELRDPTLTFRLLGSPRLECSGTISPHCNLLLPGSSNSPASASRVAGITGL

[5] = target: Mitogen-activated protein kinase 1 (Homo sapiens, UniProt P28482); test: Selectivity interaction (Kinase panel (DSF assay)) EUB0001558a MAPK1
Sequence of Mitogen-activated protein kinase 1 (P28482 whole entry): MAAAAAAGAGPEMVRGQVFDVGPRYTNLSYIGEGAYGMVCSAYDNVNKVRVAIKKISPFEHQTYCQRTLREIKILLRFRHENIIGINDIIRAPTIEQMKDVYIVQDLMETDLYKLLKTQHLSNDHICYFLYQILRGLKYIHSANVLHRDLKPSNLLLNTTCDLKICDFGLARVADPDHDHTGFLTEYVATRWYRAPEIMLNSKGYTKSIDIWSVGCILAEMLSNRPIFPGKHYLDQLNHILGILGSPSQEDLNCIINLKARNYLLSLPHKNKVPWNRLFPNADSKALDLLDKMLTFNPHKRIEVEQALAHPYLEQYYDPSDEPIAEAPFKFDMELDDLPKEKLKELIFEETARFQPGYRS

[6] = target: T2, Serine/threonine-protein kinase STK11 (Homo sapiens) (UniProt Q15831); settings: at 10 µM
T2 sequence (whole entry): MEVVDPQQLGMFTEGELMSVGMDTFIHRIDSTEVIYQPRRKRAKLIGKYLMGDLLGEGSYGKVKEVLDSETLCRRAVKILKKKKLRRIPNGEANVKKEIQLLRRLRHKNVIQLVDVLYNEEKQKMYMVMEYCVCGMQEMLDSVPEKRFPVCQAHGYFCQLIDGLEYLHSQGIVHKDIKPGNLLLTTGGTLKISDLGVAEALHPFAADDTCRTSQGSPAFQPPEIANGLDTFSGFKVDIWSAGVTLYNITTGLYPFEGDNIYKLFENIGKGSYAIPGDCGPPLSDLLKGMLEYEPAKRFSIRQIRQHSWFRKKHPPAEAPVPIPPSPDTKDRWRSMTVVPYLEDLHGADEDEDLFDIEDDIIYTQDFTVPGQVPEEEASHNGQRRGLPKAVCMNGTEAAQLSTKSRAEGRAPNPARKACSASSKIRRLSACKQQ

[7] = target: 5'-AMP-activated protein kinase catalytic subunit alpha-1 (Homo sapiens, UniProt Q13131); test: Selectivity interaction (ActivX KiNativ screen (kinase selectivity in THP-1 cell lysates)) EUB0000639a PRKAA1; format: subcellular; settings: lysate, at 1 µM
Sequence of 5'-AMP-activated protein kinase catalytic subunit alpha-1 (Q13131 whole entry, looked up): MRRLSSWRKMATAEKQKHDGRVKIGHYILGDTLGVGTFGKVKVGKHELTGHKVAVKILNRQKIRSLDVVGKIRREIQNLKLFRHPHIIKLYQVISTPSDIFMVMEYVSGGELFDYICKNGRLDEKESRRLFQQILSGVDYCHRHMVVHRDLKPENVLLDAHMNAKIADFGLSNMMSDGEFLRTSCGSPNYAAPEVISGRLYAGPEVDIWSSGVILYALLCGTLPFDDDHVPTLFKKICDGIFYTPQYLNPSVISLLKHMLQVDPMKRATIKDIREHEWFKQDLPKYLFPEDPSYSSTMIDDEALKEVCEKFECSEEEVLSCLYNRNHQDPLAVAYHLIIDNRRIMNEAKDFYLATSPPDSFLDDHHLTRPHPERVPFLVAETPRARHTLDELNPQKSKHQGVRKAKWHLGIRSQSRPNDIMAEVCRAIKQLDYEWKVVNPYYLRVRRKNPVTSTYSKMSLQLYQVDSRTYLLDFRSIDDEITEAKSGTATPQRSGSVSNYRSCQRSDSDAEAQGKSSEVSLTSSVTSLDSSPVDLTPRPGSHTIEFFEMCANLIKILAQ

[8] = target: T3, Rhodopsin kinase GRK7 (Homo sapiens) (UniProt Q8WTQ7); test: Selectivity interaction (Kinase panel (Invitrogen)) EUB0000639a GRK7; settings: at 200 nM
T3 sequence (whole entry): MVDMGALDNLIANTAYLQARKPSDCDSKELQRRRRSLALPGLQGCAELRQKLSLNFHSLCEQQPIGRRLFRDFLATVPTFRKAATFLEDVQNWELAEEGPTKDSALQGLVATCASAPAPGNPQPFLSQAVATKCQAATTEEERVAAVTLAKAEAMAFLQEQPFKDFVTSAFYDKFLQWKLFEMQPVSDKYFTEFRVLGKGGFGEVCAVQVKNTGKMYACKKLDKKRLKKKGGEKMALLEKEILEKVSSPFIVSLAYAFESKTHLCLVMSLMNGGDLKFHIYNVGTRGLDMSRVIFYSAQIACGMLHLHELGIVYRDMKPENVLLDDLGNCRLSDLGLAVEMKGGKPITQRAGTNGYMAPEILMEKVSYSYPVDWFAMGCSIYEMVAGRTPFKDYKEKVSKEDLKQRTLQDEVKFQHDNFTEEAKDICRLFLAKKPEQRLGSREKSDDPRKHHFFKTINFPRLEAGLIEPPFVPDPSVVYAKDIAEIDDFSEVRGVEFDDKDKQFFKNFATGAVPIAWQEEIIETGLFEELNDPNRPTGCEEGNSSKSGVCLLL

[9] = target: Ribosomal protein S6 kinase alpha-5 (Homo sapiens) (UniProt O75582); settings: at 10 µM
[10] = target: Serine/threonine-protein kinase PRP4 homolog (Homo sapiens) (UniProt Q13523); test: Selectivity interaction (KinomeScan (DiscoverX)) EUB0000092b PRPF4B; settings: at 10 µM
[11] = target: Ribosomal protein S6 kinase beta-1 (Homo sapiens, UniProt P23443); settings: at 10 µM
Sequence of Ribosomal protein S6 kinase beta-1 (P23443 whole entry, looked up): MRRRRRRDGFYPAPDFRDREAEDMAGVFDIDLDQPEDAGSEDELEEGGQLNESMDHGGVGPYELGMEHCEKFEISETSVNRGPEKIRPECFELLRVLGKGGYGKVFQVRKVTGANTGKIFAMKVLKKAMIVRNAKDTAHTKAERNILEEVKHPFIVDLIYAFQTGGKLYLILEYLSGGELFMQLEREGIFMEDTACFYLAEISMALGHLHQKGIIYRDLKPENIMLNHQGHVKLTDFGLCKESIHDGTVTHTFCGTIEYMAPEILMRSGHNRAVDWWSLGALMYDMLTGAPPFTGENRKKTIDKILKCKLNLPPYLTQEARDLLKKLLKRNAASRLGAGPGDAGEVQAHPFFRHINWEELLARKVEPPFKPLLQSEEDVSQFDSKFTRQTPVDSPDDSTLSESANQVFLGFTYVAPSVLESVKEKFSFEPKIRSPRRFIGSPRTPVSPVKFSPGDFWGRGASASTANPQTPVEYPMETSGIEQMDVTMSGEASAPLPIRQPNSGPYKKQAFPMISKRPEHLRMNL

[12] = target: Serine/threonine-protein kinase B-raf (Homo sapiens) (UniProt P15056); settings: at 10 µM
[13] = target: Ribosomal protein S6 kinase alpha-1 (Homo sapiens, UniProt Q15418); test: Selectivity interaction (KinomeScan (DiscoverX)) EUB0000655a RPS6KA1; settings: at 10 µM
[14] = target: Serine/threonine-protein kinase OSR1 (Homo sapiens) (UniProt O95747); test: Selectivity interaction (LanthaScreen Eu Kinase Binding Assay) EUB0001632a OXSR1; settings: at 10 µM
[15] = target: CDK6/cyclin D1 (Homo sapiens) (UniProt P24385+Q00534); test: (§1) Selectivity interaction (ProQinase) EUB0000171b CDK6; format: protein-complex assay
[16] = target: CDK6/cyclin D3 (Homo sapiens) (UniProt P30281+Q00534); test: as §1; format: protein-complex assay

Sequence of Myosin light chain kinase, smooth muscle (Q15746 whole entry): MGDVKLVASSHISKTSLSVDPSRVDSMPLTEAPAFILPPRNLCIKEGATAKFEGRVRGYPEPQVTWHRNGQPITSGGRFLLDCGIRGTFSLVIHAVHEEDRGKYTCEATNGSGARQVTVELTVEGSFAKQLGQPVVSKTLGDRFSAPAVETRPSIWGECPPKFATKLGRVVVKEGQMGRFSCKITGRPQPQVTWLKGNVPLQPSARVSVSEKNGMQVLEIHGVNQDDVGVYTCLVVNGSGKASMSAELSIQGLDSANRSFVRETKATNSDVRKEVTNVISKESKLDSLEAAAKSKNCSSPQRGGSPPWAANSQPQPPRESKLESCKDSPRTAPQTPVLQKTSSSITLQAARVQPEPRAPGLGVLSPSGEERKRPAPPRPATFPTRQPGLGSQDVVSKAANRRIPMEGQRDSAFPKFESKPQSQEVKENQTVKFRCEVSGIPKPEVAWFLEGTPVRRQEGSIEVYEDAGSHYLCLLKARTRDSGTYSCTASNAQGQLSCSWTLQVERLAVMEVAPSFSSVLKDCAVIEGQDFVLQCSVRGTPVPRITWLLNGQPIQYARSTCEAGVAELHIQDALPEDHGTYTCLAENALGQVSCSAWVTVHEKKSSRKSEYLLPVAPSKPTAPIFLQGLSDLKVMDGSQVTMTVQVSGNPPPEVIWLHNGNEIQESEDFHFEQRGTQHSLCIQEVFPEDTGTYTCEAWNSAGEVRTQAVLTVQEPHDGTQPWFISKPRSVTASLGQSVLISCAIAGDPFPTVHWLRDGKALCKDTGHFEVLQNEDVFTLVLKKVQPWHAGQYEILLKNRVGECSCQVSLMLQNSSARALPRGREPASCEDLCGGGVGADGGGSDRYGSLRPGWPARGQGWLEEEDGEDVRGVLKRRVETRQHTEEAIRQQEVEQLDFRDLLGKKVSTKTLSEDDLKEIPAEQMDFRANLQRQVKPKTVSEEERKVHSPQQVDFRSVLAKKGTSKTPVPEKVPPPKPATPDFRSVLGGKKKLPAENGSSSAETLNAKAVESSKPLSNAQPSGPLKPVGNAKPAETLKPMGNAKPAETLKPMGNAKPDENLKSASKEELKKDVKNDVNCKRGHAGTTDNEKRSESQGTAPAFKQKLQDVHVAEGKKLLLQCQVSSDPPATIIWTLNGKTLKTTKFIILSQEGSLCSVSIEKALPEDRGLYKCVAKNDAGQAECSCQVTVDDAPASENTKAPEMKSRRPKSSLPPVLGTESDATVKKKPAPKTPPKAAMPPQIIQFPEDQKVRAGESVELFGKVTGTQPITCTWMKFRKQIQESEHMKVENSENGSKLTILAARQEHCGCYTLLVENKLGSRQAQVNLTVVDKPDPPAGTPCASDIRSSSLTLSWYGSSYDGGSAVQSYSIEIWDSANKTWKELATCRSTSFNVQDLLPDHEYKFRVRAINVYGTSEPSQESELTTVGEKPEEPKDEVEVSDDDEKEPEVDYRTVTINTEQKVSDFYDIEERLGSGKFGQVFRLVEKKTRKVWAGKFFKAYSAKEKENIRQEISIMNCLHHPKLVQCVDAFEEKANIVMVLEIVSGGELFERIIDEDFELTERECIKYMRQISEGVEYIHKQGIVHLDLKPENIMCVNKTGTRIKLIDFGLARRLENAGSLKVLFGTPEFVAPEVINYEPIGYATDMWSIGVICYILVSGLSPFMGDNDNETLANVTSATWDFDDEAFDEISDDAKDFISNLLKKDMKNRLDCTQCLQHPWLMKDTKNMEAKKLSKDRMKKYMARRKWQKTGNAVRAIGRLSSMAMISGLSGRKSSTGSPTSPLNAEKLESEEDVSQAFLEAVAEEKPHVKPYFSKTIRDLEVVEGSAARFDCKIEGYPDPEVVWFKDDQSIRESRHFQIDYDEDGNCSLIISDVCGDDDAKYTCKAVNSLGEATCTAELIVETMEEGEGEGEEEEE

CN1Cc2nccc(-c3cn(C)nc3-c3ccc(F)cc3)c2C1=O
% of inhibition [1]: 4%

O=C(NOC[C@H](O)CO)c1ccc(F)c(F)c1Nc1ccc(I)cc1F
% of control [2]: 86%
% of control [3]: 64%

Nc1cnc(N2CCc3cc(S(=O)(=O)Nc4c(F)cc(Cl)cc4F)cc(N4CCCC4=O)c32)nc1 [TP-020n]
% of control [4]: 83%

CC(C)(O)[C@H](F)CN1Cc2cc(NC(=O)c3cnn4cccnc34)c(N3CCOCC3)cc2C1=O
dTM [5]: 0.4 K

CCN(CC)CCCCNc1ncc2cc(-c3cc(OC)cc(OC)c3)c(NC(=O)NC(C)(C)C)nc2n1
% of control [6]: 100%

CC[C@@H]1[C@H](F)C(=O)N[C@@H]1COc1nccc2cc(C(N)=O)c(OC)cc12 [ZIMLOVISERTIB]
% of inhibition [7]: 5.9%
% of inhibition [8]: 1.87%

COCC(=O)NC/C=C/c1ccc2ncnc(Nc3ccc(Oc4ccc(C)nc4)c(C)c3)c2c1 [CP-724714]
% of control [9]: 98%

CCC(=O)N1CCN(c2ccc(-n3c(=O)ccc4cnc5ccc(-c6cnc7ccccc7c6)cc5c43)cc2C(F)(F)F)CC1
% of control [10]: 100%

Cc1cc([C@@H](C)Nc2ccccc2C(=O)O)c2nc(N3CCOCC3)cc(=O)n2c1 [AZD-6482]
% of control [11]: 72%
% of control [12]: 100%

CN(C)CCOc1ccc(-c2nc(-c3ccncc3)c(-c3ccc4c(c3)CC/C4=N\O)[nH]2)cc1
% of control [13]: 81%

Cn1cc(-n2cnc3c(NCc4nc5cc(Cl)c(Cl)cc5[nH]4)nc(N4CCOCC4)nc32)cn1
% of inhibition [14]: -23%

C=CC(=O)Nc1cccc(C(=O)Nc2ccc(Nc3cc(-c4[nH]c(SC)nc4C)ccn3)cc2)c1
% of control ([15]; at 1 µM): 91%
% of control ([15]; at 5 µM): 87%
% of control ([16]; at 1 µM): 93%
% of control ([16]; at 5 µM): 86%
